Consider 29 molecules from patent publication US20080039455A1, “PYRAZOLOPYRIMIDINES AND SALTS THEREOF, PHARMACEUTICAL COMPOSITIONS COMPRISING SAME, METHODS OF PREPARING SAME AND USES OF SAME” (priority 2006, published 2008).

The target in the experiment is T1, human recombinant ALK1 (GST fused to ALK1 intracellular domain [His142-Gln503]) (Homo sapiens, UniProt P37023).
T1 construct: GST fused to ALK1 intracellular domain [His142-Gln503]; made in house
T1 sequence (P37023 142-503): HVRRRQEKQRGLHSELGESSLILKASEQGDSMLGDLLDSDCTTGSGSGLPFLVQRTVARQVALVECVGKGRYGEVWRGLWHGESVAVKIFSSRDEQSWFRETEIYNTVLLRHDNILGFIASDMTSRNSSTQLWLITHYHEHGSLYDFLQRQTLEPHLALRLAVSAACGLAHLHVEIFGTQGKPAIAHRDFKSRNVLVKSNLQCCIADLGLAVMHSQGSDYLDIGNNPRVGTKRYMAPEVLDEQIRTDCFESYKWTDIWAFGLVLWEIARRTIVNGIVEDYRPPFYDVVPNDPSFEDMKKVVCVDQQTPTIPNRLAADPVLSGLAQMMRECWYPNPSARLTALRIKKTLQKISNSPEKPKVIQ
Put plainly: ALK1-Kinase Flashplate-Assay. Type of experiment: biochemical. As to conditions: 0.5 μM ATP, biotinylated α-casein substrate; read-out: Assay 1 (ALK1-Kinase Flashplate-Assay IC50 class). The source says:
Biological Assay 1: ALK1-Kinase Flashplate-Assay
ALK1 phosphorylates serine/threonine residues of the biotinylated substrate bovine α-casein in the presence of [γ-^33P]ATP. Detection of the radiolabeled phosphorylated product is achieved by binding to streptavidine-coated Flashplates. The biotin moieties of biotinylated casein bind with high affinity to the streptavidine. The radiolabeled biotinylated casein produced by the ALK1 kinase reaction is able to generate a […] signal when strepatavidine-mediated binding occurs to the scintillant-containing surface of the Flashplates due to the close proximity of the radiolabel and the scintillant. […] The signals obtained are therefore indicative of the ALK1 kinase activity. Measurement is performed in a Perkin-Elmer TopCount or Perkin-Elmer ViewLux instrument.
Enzyme: Purified human recombinant ALK1 (GST fused to ALK1 intracellular domain [His142-Gln503]) produced in-house, aliquots stored at −80° C.;
Diluted enzyme working solution: 2.5 ng/μl ALK1 (in assay buffer) freshly prepared and chilled on ice until use.
Substrate: biotinylated bovine α-casein. Unbiotinylated casein obtained from Sigma was biotinylated by standard procedures using N-hydroxysuccinimide (NHS) ester of biotin.
Substrate working solution: 0.83 μM ATP, 1.67 μM biotinylated a-casein, 7.4 nCi [γ-^33P]ATP/μl in assay buffer
Assay plates: 384-well plates, small volume, white, Greiner (# 784075)
Flashplates: Streptavidin-coated Flashplates, Perkin Elmer (384-well # SPM410A)
Assay buffer: 50 mM Tris/HCl pH 8.0, 1 mM MnCl2, 1 mM DTT, 0.01% NP40, 0.5× Complete EDTA-free
Stop solution: 33.3 μM ATP, 33.3 mM EDTA, 0.07% Triton X-100 in PBS
Saturating buffer for Flashplates: 100 μM ATP, 0.2% Triton X-100 in PBS
Sealing tape: Greiner (# 676080)
Protocol for small volume 5 μl assay (all steps are performed at 20° C., pipetted with CyBi-Well and Multidrop Micro): • 1. 50 nl or 250 nl compound in 100% DMSO • 2. addition of 3 μl substrate working solution with CyBi-Well pipettor • 3. addition of 2 μl enzyme working solution with Multidrop Micro incubation for 60 min at room temperature • 4. addition of 15 μl Stop solution with CyBi-Well pipettor • 5. transfer of 18 μl assay mixture to Flashplates** with CyBi-Well pipettor incubation for at least 3 h at room temperature or over night at 4° C. to allow binding to the streptavidine-coated Flashplates • 6. washing the Flashplates 3 times with 50 μl PBS without Ca++ and Mg++ • 7. sealing with sealing tape • 8. Measurement in Topcount (60 sec/well) **Saturation of Flashplates: The Flashplates are preincubated for at least 1 hour with 50 μl saturating buffer. Remove 18 μl from the 50 μl and transfer 18 μl of the assay mixture to the Flashplate.
Final concentrations, calculated for 5 μl reaction volume: ALK1 5 ng/well; 1 μM biotinylated α-casein; 0.5 μM ATP; 22 nCi/well [γ-^33P]ATP; 1 mM MnCl2; 1 mM DTT; 50 mM Tris-HCl; pH 8.0; 0.01% NP40; 0.5× Complete EDTA-free; 1% or 5% DMSO.
The data were normalised (enzyme reaction without inhibitor=0% inhibition, enzyme reaction in the presence of 10 mM EDTA=100% inhibition) and IC50 values were calculated by a 4 parameter fit using an in-house software.

As usually defined, the IC50 is the point on the concentration scale where inhibition reaches its midpoint. Regarding `CC(C)c1ccc(Nc2ccn3ncc(-c4cccc(C(=O)NCCN(C)C)c4)c3n2)cc1` [Example 1, N-(2-dimethylamino-ethyl)-3-[5-(4-isopropyl-phenylamino)-pyrazolo[1,5-a]pyrimidin-3-yl]-benzamide], the IC50 was under 1000 nM.

On to `COc1cc(Nc2ccn3ncc(-c4ccncc4)c3n2)cc(OC)c1OC` [Example 4, (3-Pyridin-4-yl-pyrazolo[1,5-a]pyrimidin-5-yl)-(3,4,5-trimethoxy-phenyl)-amine], for which the IC50 was 1000 to 10000 nM.

As for `COc1ccc(Nc2ccn3ncc(-c4ccc(O)cc4)c3n2)cn1` [Example 13, 4-[5-(6-Methoxy-pyridin-3-ylamino)-pyrazolo[1,5-a]pyrimidin-3-yl]-phenol], the IC50 is 1000 to 10000 nM.

For `COc1ccc(-c2cnn3ccc(Nc4ccc5[nH]ccc5c4)nc23)cc1OC` [Example 17, [3-(3,4-Dimethoxy-phenyl)-pyrazolo[1,5-a]pyrimidin-5-yl]-(1H-indol-5-yl)-amine], the IC50 was under 1000 nM.

For `Oc1ccc(-c2cnn3ccc(Nc4ccc5[nH]ccc5c4)nc23)cc1` [Example 18, 4-[5-(1H-Indol-5-ylamino)-pyrazolo[1,5-a]pyrimidin-3-yl]-phenol], the IC50 was 1000 to 10000 nM.

On to `CC(=O)Nc1cccc(-c2cnn3ccc(Nc4ccc5[nH]ccc5c4)nc23)c1` [Example 19, N-{3-[5-(1H-Indol-5-ylamino)-pyrazolo[1,5-a]pyrimidin-3-yl]-phenyl}-acetamide], for which the IC50 is under 1000 nM.

In the case of `Oc1ccc(-c2cnn3ccc(Nc4ccc(N5CCOCC5)cc4)nc23)cc1` [Example 28, 4-[5-(4-Morpholin-4-yl-phenylamino)-pyrazolo[1,5-a]pyrimidin-3-yl]-phenol], the IC50 is 1000 to 10000 nM.

Turning to `CC(=O)Nc1cccc(-c2cnn3ccc(Nc4ccc(N5CCOCC5)cc4)nc23)c1` [Example 29, N-{3-[5-(4-Morpholin-4-yl-phenylamino)-pyrazolo[1,5-a]pyrimidin-3-yl]-phenyl}-acetamide], the IC50 fell in the range of 1000 to 10000 nM.

On to `COc1ccc(-c2cnn3ccc(Nc4ccc(Oc5ccccc5)cc4)nc23)cc1OC` [Example 33, [3-(3,4-Dimethoxy-phenyl)-pyrazolo[1,5-a]pyrimidin-5-yl]-(4-phenoxy-phenyl)-amine], for which the IC50 was in the range of 1000 to 10000 nM.

Turning to `CC(C)c1ccc(Nc2ccn3ncc(-c4ccncc4)c3n2)cc1` [Example 36, (4-Isopropyl-phenyl)-(3-pyridin-4-yl-pyrazolo[1,5-a]pyrimidin-5-yl)-amine], the IC50 lay in the range of 1000 to 10000 nM.

Regarding `COc1ccc(-c2cnn3ccc(Nc4ccc(C(C)C)cc4)nc23)cc1OC` [Example 37, [3-(3,4-Dimethoxy-phenyl)-pyrazolo[1,5-a]pyrimidin-5-yl]-(4-isopropyl-phenyl)-amine], the IC50 fell in the range of 1000 to 10000 nM.

Regarding `NC(=O)c1cccc(-c2cnn3ccc(Nc4ccc(Oc5ccccc5)cc4)nc23)c1` [Example 38, 3-[5-(4-Phenoxy-phenylamino)-pyrazolo[1,5-a]pyrimidin-3-yl]-benzamide], the IC50 was 1000 to 10000 nM.

As for `CS(=O)(=O)Nc1cccc(-c2cnn3ccc(Nc4ccc(Oc5ccccc5)cc4)nc23)c1` [Example 42, N-{3-[5-(4-Phenoxy-phenylamino)-pyrazolo[1,5-a]pyrimidin-3-yl]-phenyl}-methanesulfonamide], the IC50 fell in the range of 1000 to 10000 nM.

For `Oc1ccc(Nc2ccn3ncc(-c4ccc5c(c4)OCO5)c3n2)cc1` [Example 45, 4-(3-Benzo[1,3]dioxol-5-yl-pyrazolo[1,5-a]pyrimidin-5-ylamino)-phenol], the IC50 was in the range of 1000 to 10000 nM.

On to `COc1ncc(-c2cnn3ccc(Nc4ccc(O)cc4)nc23)c(OC)n1` [Example 46, 4-[3-(2,4-Dimethoxy-pyrimidin-5-yl)-pyrazolo[1,5-a]pyrimidin-5-ylamino]-phenol], for which the IC50 is under 1000 nM.

On to `Oc1ccc(Nc2ccn3ncc(-c4ccsc4)c3n2)cc1` [Example 48, 4-(3-Thiophen-3-yl-pyrazolo[1,5-a]pyrimidin-5-ylamino)-phenol], for which the IC50 was under 1000 nM.

`Oc1ccc(Nc2ccn3ncc(-c4ccc(O)cc4)c3n2)cc1` [Example 49, 4-[5-[(4-hydroxyphenyl)amino]pyrazolo[1,5-a]pyrimidin-3-yl]-phenol]: the IC50 is under 1000 nM.

Consider `CC(=O)Nc1cccc(-c2cnn3ccc(Nc4ccc(O)cc4)nc23)c1` [Example 50, N-{3-[5-(4-Hydroxy-phenylamino)-pyrazolo[1,5-a]pyrimidin-3-yl]-phenyl}-acetamide], for which the IC50 was under 1000 nM.

As for `Cc1ccc(S(=O)(=O)Nc2ccc(Nc3ccn4ncc(-c5ccncc5)c4n3)cc2)cc1` [Example 51, 4-Methyl-N-[4-(3-pyridin-4-yl-pyrazolo[1,5-a]pyrimidin-5-ylamino)-phenyl]-benzenesulfonamide], the IC50 is under 1000 nM.

`Cc1ccc(S(=O)(=O)Nc2ccc(Nc3ccn4ncc(-c5cccnc5)c4n3)cc2)cc1` [Example 52, 4-Methyl-N-[4-(3-pyridin-3-yl-pyrazolo[1,5-a]pyrimidin-5-ylamino)-phenyl]-benzenesulfonamide]: the IC50 is under 1000 nM.

With `COc1ccc(-c2cnn3ccc(Nc4ccc(NS(=O)(=O)c5ccc(C)cc5)cc4)nc23)cc1OC` [Example 56, N-{4-[3-(3,4-Dimethoxy-phenyl)-pyrazolo[1,5-a]pyrimidin-5-ylamino]-phenyl}-4-methyl-benzenesulfonamide], the IC50 is under 1000 nM.

Take `Cc1ccc(Nc2ccn3ncc(-c4ccc(O)cc4)c3n2)cc1NS(C)(=O)=O` [Example 60, N-{5-[3-(4-Hydroxy-phenyl)-pyrazolo[1,5-a]pyrimidin-5-ylamino]-2-methyl-phenyl}-methanesulfonamide]: the IC50 is under 1000 nM.

Regarding `c1cc(CNc2ccn3ncc(-c4ccc5c(c4)OCO5)c3n2)ccn1` [Example 61, (3-Benzo[1,3]dioxol-5-yl-pyrazolo[1,5-a]pyrimidin-5-yl)-pyridin-4-ylmethyl-amine], the IC50 was under 1000 nM.

As for `c1cc(CNc2ccn3ncc(-c4ccsc4)c3n2)ccn1` [Example 63, Pyridin-4-ylmethyl-(3-thiophen-3-yl-pyrazolo[1,5-a]pyrimidin-5-yl)-amine], the IC50 is under 1000 nM.

In the case of `c1ccc2sc(-c3cnn4ccc(NCc5ccncc5)nc34)cc2c1` [Example 64, (3-Benzo[b]thiophen-2-yl-pyrazolo[1,5-a]pyrimidin-5-yl)-pyridin-4-ylmethyl-amine], the IC50 was under 1000 nM.

`COc1ccc(-c2cnn3ccc(NCc4ccncc4)nc23)cc1OC` [Example 65, [3-(3,4-Dimethoxy-phenyl)-pyrazolo[1,5-a]pyrimidin-5-yl]-pyridin-4-ylmethyl-amine]: the IC50 is under 1000 nM.

For the molecule `Oc1ccc(-c2cnn3ccc(NCc4ccncc4)nc23)cc1` [Example 66, 4-{5-[(Pyridin-4-ylmethyl)-amino]-pyrazolo[1,5-a]pyrimidin-3-yl}-phenol], the half-inhibitory concentration (IC50) was under 1000 nM.

As for `OC1CCC(Nc2ccn3ncc(-c4cccnc4)c3n2)CC1` (centres unmarked) [Example 67, 4-(3-Pyridin-3-yl-pyrazolo[1,5-a]pyrimidin-5-ylamino)-cyclohexanol], the 50% inhibitory concentration (IC50) is 1000 to 10000 nM.

For `COc1ccc(-c2cnn3ccc(NC4CCC(O)CC4)nc23)cc1OC` (centres unmarked) [Example 69, 4-[3-(3,4-Dimethoxy-phenyl)-pyrazolo[1,5-a]pyrimidin-5-ylamino]-cyclohexanol], the IC50 was under 1000 nM.
